This note sets out measurements from PubChem BioAssay (NCI).

Test systems include MOLT-4 leukemia; OVCAR-5 ovarian; COLO 205 colon; HT29 colon; ACHN renal; MCF7 breast; SF-295 CNS; SK-MEL-2 melanoma; UACC-257 melanoma; CAKI-1 renal.
Assay in all cases: NCI-60 cell line screen, 48 h

“And” between values parts separate entries of the source, which are not always exact repeats. Identical values can stand only once.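 The compound was tested at five concentrations on cells cultured in 96-well plates, with a 48-hour exposure period. Abbreviation: GI50, concentration required for 50% inhibition of growth. TGI marks complete inhibition of growth.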

As to `O=C(Cn1c(=O)c(-c2ccccc2)nc2ccccc21)c1ccc(Cl)cc1`, the GI50 is more than 100 µM in the assay with MOLT-4 leukemia; more than 100000 nM in the assay on OVCAR-5 ovarian; more than 100 µM with COLO 205 colon; 41.7 µM with HT29 colon; 38600 nM with ACHN renal; 71200 nM in the assay with MCF7 breast. The GI50 in the assay on SF-295 CNS was 35.7 µM; in the assay with SK-MEL-2 melanoma it was more than 100 µM; in the assay with UACC-257 melanoma, more than 100 µM; with CAKI-1 renal, 67.5 µM. Further, the TGI in the assay on MOLT-4 leukemia, in the assay with OVCAR-5 ovarian, with COLO 205 colon, in the assay on HT29 colon, in the assay with ACHN renal and with MCF7 breast was more than 100 µM in each case. Besides, the TGI in the assay on SF-295 CNS, with SK-MEL-2 melanoma, in the assay with UACC-257 melanoma and with CAKI-1 renal was more than 100 µM throughout.
On to `COc1ccc(C(C#N)NC23CC4CC(CC(C4)C2)C3)cc1OC` (stereo not drawn), for which the TGI with MOLT-4 leukemia, in the assay with OVCAR-5 ovarian, with COLO 205 colon, in the assay with HT29 colon, with ACHN renal and with MCF7 breast was more than 100 µM in each case. The TGI with SF-295 CNS, in the assay on SK-MEL-2 melanoma, in the assay with UACC-257 melanoma and in the assay on CAKI-1 renal was more than 100 µM each time.
As for `O=C(CCN1CCOCC1)Nc1ccc(F)cc1F`, the TGI in the assay on MOLT-4 leukemia, with OVCAR-5 ovarian, with COLO 205 colon, with HT29 colon, in the assay on ACHN renal and in the assay on MCF7 breast was more than 100 µM throughout. The TGI in the assay with SF-295 CNS, in the assay with SK-MEL-2 melanoma, in the assay with UACC-257 melanoma and with CAKI-1 renal was more than 100 µM throughout.
In the case of `CN1CCN(CCCOc2cccc3nc(Nc4ccc(Cl)c(F)c4)ccc23)CC1`, the GI50 was 1.82 µM in the assay on MOLT-4 leukemia; 1550 nM with OVCAR-5 ovarian; 1.7 µM in the assay with COLO 205 colon; 1.41 µM in the assay on HT29 colon; 1660 nM in the assay on ACHN renal; 1310 nM in the assay on MCF7 breast. For the same compound, the GI50 in the assay on SF-295 CNS was 1.79 µM; in the assay with SK-MEL-2 melanoma, 1.88 µM; in the assay with UACC-257 melanoma it was 2.04 µM; in the assay on CAKI-1 renal, 2.53 µM. Moreover, the TGI in the assay on MOLT-4 leukemia amounted to 3.77 µM; with OVCAR-5 ovarian, 3.26 µM; in the assay on COLO 205 colon, 3.34 µM; in the assay with HT29 colon it was 2.8 µM; in the assay on ACHN renal, 3.07 µM; in the assay with MCF7 breast, 2.77 µM. In addition, the TGI in the assay on SF-295 CNS stood at 3.46 µM; with SK-MEL-2 melanoma, 3.7 µM; in the assay with UACC-257 melanoma, 3.64 µM; in the assay with CAKI-1 renal, 8.47 µM.
Turning to `CC(C)(C)[Si](C)(C)OCC1CCC(n2cnc3c(=O)[nH]cnc32)O1` (stereo not drawn), the TGI in the assay with MOLT-4 leukemia, with OVCAR-5 ovarian, with COLO 205 colon, in the assay on HT29 colon, with ACHN renal and in the assay on MCF7 breast was more than 100 µM in each case. In addition, the TGI in the assay with SF-295 CNS, with SK-MEL-2 melanoma, in the assay on UACC-257 melanoma and in the assay with CAKI-1 renal was more than 100 µM in each case.
Turning to `Cc1oc2nc[nH]c(=O)c2c1C(=O)/C=C/c1ccc(Cl)cc1`, the GI50 is 2.75 µM with MOLT-4 leukemia; 3170 nM with OVCAR-5 ovarian; 1.9 µM with COLO 205 colon; 2.9 µM with HT29 colon; 1990 nM with ACHN renal; 1390 nM in the assay on MCF7 breast. For the same compound, the GI50 in the assay with SF-295 CNS is 4.5 µM; with SK-MEL-2 melanoma it was 3.13 µM; in the assay with UACC-257 melanoma, 2.72 µM; in the assay with CAKI-1 renal, 3.06 µM. In addition, the TGI in the assay with MOLT-4 leukemia was determined as 9.98 µM; with OVCAR-5 ovarian, 12 µM; with COLO 205 colon it was 4.22 µM; in the assay with HT29 colon it was 10.6 µM; with ACHN renal, 6.04 µM; in the assay on MCF7 breast, 12.3 µM. Moreover, the TGI amounted to 16 µM with SF-295 CNS, 12.3 µM in the assay with SK-MEL-2 melanoma, 12.7 µM in the assay on UACC-257 melanoma and 22.8 µM in the assay on CAKI-1 renal.
In the case of `O=c1oc2cc(N=Cc3ccccc3Cl)ccc2c2ccccc12`, the TGI in the assay with MOLT-4 leukemia, in the assay on OVCAR-5 ovarian, in the assay with COLO 205 colon, with HT29 colon, in the assay on ACHN renal and in the assay with MCF7 breast was more than 100 µM in each case. For the same compound, the TGI in the assay with SF-295 CNS, in the assay on SK-MEL-2 melanoma, in the assay on UACC-257 melanoma and in the assay on CAKI-1 renal was more than 100 µM throughout.
`COc1cc(-c2nn(-c3ccc(NC(=O)Nc4ccc(Cl)c(Cl)c4)cc3)cc2-c2ccncc2)ccc1Cl`: the GI50 in the assay on MOLT-4 leukemia was 3.27 µM; in the assay with OVCAR-5 ovarian, 2540 nM; in the assay on COLO 205 colon, 1.97 µM; in the assay on HT29 colon, 3.52 µM; with ACHN renal it was 3350 nM; with MCF7 breast, 3350 nM. For the same compound, the GI50 in the assay with SF-295 CNS is 1.82 µM; in the assay with SK-MEL-2 melanoma, 3.44 µM; with UACC-257 melanoma, 3.17 µM; in the assay with CAKI-1 renal it was 2.59 µM. Besides, the TGI was more than 100 µM in the assay with MOLT-4 leukemia; more than 100 µM with OVCAR-5 ovarian; 4.2 µM in the assay with COLO 205 colon; 17.1 µM with HT29 colon; more than 100 µM in the assay on ACHN renal; more than 100 µM with MCF7 breast. The TGI in the assay with SF-295 CNS was determined as 4.4 µM; in the assay on SK-MEL-2 melanoma, 39.7 µM; in the assay on UACC-257 melanoma, 23.5 µM; in the assay on CAKI-1 renal, 7.68 µM.
As to `NC(C/[N+]([O-])=N/O)C(=O)O` (stereo not drawn), the GI50 in the assay on MOLT-4 leukemia was 23.3 µM; in the assay with COLO 205 colon, 21.6 µM and 69.7 µM and 17.4 µM; in the assay with ACHN renal, 2980 nM; in the assay on MCF7 breast, 1200 nM and 4170 nM and 1150 nM; in the assay with SF-295 CNS, 6.24 µM; in the assay with SK-MEL-2 melanoma, 115 µM. Moreover, the GI50 was 18 µM and 68.2 µM and 52.5 µM with UACC-257 melanoma; 16.6 µM and 32.2 µM and 4.52 µM with CAKI-1 renal. For the same compound, the TGI with MOLT-4 leukemia was > 100 µM and 315 µM; in the assay with OVCAR-5 ovarian it was > 100 µM and 230 µM; with COLO 205 colon, > 62.7 µM and > 100 µM and 256 µM; in the assay with HT29 colon, more than 395 µM; in the assay on ACHN renal, more than 500 µM; in the assay on MCF7 breast, > 100 µM and 295 µM. Moreover, the TGI in the assay with SF-295 CNS was more than 500 µM; with SK-MEL-2 melanoma, > 100 µM and 359 µM; with UACC-257 melanoma, > 100 µM and 456 µM; in the assay on CAKI-1 renal, > 100 µM and 102 µM.
